Active and inactive are the calls of the source.
Columns and labels:
[1] = target: Glyceraldehyde-3-phosphate dehydrogenase (Homo sapiens, UniProt P04406)
[2] = target: Mitogen-activated protein kinase 10 (Homo sapiens, UniProt P53779); experiment: Dose response biochemical screening assay for inhibitors of c-Jun N-Terminal Kinase 3 (JNK3). [Related pubchem assays: 746 ]
[3] = target: T1, Alkaline phosphatase, tissue-nonspecific isozyme (Homo sapiens, UniProt P05186); experiment: potency against alkaline phosphatase TNAP – biochemical, luminescent, dose response, SAR follow-up (AID 1056)
T1 sequence (P05186 whole entry): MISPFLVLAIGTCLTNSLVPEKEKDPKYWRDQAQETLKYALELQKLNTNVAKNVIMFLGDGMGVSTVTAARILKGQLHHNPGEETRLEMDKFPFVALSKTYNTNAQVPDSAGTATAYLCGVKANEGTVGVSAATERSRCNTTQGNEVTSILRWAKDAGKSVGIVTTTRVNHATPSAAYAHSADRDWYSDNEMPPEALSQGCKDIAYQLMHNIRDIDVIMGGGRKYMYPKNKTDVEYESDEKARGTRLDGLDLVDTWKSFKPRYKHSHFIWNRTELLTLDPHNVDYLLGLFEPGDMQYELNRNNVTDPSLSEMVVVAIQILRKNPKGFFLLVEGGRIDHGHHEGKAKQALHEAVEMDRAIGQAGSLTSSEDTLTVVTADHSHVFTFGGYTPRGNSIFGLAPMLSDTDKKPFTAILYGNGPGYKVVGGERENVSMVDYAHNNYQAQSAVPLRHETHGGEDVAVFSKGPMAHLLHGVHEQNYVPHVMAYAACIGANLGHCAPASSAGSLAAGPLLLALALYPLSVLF

[4] = Luminescence Cell-Based Dose Response to Identify Activators of 5'UTR Stem-Loop Driven Prion Protein mRNA Translation in H4-C Neuroglioblastoma Cells. [Related pubchem assays: 1829 (Project Summary), 1814 (Primary HTS)]; format: functional
[5] = Luminescence Cell-Based Dose Confirmation HTS to Identify Activators of 5'UTR Stem-Loop Driven Alpha-Synuclein mRNA Translation in H4 Neuroglioblastoma Cells. [Related pubchem assays: 1829 (Project Summary), 1814 (Primary HTS)]; format: functional
[6] = Luminescence Cell-Based Dose Response HTS to Identify Activators of Luciferase Translation or Activity in H4 […] Cells. [Related pubchem assays: 1829 (Project Summary), 1814 (Primary HTS)]; format: functional
H4 = experiment: Luminescence Cell-Based Dose Response HTS to Identify Activators of 5'UTR Stem-Loop Driven Prion Protein mRNA Translation in H4 Neuroglioblastoma Cells. [Related pubchem assays: 1829 (Project Summary), 1814 (Primary HTS)]; format: functional; settings: Homo sapiens
[7] = Luminescence Cell-Based Dose Response to Identify Activators of Luciferase Translation or Activity in H4-C Neuroglioblastoma Cells. [Related pubchem assays: 1829 (Project Summary), 1814 (Primary HTS)]; format: functional
[8] = Luminescence Cell-Based Dose Confirmation to Identify Activators of 5'UTR Stem-Loop Driven Alpha-Synuclein mRNA Translation in H4 Neuroglioblastoma Cells. [Related pubchem assays: 1829 (Project Summary), 1814 (Primary HTS)]; format: functional
[9] = target: T2, Oxysterols receptor LXR-beta (Homo sapiens, UniProt P55055); format: functional, cell-based;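 further: Cell-based luminescence dose-response assay of agonist activity at LXR, run as a confirmatory counterscreen to a daf-12 agonist screen; HEK293 cells with Gal4-LXR fusion and GAL4-driven luciferase reporter; agonist potency from rising luciferase signal of a Gal4-LXR reporter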
T2 sequence (P55055 whole entry): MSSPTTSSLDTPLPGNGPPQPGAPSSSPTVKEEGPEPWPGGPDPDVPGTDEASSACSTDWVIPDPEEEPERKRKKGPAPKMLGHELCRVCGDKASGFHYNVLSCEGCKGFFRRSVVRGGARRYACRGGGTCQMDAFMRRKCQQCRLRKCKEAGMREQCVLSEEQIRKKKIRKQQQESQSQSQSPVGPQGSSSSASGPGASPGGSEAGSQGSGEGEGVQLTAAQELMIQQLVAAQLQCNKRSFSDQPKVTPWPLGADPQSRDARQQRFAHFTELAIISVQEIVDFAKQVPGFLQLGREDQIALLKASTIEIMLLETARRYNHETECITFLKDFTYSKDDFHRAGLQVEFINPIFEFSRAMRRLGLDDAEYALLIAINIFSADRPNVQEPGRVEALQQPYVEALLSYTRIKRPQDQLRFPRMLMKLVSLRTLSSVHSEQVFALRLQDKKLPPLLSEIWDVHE

Ephrin type-A receptor 4 = Ephrin type-A receptor 4 (Mus musculus, UniProt Q03137); experiment: EphA4 ligand-binding antagonists – biochemical, colorimetric, mouse EphA4, primary screen (AID 689); format: functional
Chain of Ephrin type-A receptor 4 (Q03137 whole entry): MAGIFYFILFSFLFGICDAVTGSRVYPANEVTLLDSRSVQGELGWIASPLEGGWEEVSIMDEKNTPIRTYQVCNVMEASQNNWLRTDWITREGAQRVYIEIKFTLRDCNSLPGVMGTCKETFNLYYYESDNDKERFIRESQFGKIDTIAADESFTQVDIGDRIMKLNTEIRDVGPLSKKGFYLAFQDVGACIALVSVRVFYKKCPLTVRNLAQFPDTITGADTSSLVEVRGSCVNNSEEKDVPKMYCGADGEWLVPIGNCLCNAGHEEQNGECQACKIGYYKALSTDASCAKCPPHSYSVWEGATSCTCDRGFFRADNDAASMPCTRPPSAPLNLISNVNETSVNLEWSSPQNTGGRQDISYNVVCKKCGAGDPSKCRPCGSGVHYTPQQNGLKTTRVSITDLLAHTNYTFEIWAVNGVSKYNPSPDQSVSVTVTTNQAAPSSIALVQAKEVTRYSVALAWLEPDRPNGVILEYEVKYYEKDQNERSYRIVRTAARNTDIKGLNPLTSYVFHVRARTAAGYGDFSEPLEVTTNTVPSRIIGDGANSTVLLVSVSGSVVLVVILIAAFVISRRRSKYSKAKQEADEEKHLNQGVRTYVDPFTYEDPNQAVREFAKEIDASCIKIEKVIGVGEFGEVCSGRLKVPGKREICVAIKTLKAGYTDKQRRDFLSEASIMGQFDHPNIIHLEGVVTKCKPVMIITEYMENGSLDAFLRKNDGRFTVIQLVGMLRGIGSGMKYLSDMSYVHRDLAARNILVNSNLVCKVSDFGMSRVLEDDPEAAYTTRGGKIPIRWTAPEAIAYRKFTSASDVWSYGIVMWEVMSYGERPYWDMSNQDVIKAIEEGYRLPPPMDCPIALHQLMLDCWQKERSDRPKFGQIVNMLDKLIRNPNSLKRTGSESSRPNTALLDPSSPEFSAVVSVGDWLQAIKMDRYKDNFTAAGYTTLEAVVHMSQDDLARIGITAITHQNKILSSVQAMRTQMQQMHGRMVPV

Cytochrome P450 2C9 = Cytochrome P450 2C9 (Homo sapiens, UniProt P11712)
Chain of Cytochrome P450 2C9 (P11712 whole entry): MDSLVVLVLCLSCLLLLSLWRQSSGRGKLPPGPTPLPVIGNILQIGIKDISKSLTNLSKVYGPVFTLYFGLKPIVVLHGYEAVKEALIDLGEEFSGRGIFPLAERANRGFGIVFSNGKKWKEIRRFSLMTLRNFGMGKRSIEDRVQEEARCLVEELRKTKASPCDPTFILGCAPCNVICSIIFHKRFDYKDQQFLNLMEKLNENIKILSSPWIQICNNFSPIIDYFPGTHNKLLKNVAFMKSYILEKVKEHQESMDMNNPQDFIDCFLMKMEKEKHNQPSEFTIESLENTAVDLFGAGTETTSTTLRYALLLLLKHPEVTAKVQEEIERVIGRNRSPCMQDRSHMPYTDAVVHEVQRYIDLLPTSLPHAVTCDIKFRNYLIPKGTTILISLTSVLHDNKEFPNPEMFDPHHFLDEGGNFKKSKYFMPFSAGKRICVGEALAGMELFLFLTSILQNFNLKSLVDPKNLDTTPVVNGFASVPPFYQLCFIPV

Cytochrome P450 2C19 = Cytochrome P450 2C19 (Homo sapiens, UniProt P33261); experiment: qHTS Assay for Inhibitors and Substrates of Cytochrome P450 2C19. [Related pubchem assays: 410 ]; format: ADME; settings: read-out: Potency
Chain of Cytochrome P450 2C19 (P33261 whole entry): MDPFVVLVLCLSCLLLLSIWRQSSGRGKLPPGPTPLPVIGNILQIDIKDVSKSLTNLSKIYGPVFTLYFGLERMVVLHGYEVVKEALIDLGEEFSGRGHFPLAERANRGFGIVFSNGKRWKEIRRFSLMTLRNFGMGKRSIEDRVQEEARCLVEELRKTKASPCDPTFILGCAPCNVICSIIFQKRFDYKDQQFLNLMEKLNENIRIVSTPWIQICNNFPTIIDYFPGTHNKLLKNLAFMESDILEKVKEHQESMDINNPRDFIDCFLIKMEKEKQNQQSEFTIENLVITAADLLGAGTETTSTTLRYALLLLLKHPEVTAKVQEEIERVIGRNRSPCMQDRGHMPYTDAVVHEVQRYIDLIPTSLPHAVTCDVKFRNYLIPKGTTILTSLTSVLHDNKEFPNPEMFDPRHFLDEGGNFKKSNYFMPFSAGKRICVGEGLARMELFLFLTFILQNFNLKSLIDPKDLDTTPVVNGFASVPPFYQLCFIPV

Cytochrome P450 3A4 = Cytochrome P450 3A4 (Homo sapiens, UniProt P08684); settings: Potency;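 further: confirmatory qHTS run detecting inhibitors and substrates of CYP3A4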
Chain of Cytochrome P450 3A4 (P08684 whole entry): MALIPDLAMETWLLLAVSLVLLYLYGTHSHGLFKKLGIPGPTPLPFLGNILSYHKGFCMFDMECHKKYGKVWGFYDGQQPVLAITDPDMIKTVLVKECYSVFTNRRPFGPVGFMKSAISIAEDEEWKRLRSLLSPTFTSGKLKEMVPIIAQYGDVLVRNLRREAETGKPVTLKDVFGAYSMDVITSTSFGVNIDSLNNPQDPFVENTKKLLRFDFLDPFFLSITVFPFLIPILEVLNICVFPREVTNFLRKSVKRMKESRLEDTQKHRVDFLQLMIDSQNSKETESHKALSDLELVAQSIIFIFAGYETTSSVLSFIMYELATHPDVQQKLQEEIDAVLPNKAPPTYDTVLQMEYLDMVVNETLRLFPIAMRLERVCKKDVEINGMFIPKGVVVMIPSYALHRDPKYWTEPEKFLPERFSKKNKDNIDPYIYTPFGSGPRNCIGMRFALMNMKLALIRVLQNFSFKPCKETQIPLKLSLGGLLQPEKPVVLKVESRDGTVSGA

[10] = target: E3 ubiquitin-protein ligase Mdm2 (Homo sapiens, UniProt Q00987); experiment: MDM2-luc reporter signal enhancers, multi-concentration potency testing, MDM2 ubiquitin-protein ligase inhibitor program, whole-cell format, luminescence detection, 384-well microplate (AID 1394); format: functional;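 further: MDM2 E3 inhibitors raise luminescence so EC50 is for signal enhancement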
Chain of E3 ubiquitin-protein ligase Mdm2 (Q00987 whole entry): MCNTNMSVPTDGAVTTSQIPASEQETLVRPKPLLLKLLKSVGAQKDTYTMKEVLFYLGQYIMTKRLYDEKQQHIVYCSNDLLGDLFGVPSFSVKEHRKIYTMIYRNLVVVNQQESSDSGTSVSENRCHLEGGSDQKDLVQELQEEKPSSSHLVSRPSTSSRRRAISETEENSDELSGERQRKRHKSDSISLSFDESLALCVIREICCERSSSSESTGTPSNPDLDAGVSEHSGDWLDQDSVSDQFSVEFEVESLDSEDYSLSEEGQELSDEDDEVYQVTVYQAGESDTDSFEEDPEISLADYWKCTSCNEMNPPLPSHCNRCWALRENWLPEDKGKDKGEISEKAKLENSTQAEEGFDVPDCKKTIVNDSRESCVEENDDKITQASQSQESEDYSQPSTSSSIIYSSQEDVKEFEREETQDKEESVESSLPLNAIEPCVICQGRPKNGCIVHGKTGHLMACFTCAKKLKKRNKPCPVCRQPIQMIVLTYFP

[11] = target: T3, Mannose-6-phosphate isomerase (Homo sapiens, UniProt P34949); experiment: MPI enzyme activity inhibition – biochemical, fluorescence intensity, coupled assay, primary screen (AID 1209)
T3 sequence (P34949 whole entry): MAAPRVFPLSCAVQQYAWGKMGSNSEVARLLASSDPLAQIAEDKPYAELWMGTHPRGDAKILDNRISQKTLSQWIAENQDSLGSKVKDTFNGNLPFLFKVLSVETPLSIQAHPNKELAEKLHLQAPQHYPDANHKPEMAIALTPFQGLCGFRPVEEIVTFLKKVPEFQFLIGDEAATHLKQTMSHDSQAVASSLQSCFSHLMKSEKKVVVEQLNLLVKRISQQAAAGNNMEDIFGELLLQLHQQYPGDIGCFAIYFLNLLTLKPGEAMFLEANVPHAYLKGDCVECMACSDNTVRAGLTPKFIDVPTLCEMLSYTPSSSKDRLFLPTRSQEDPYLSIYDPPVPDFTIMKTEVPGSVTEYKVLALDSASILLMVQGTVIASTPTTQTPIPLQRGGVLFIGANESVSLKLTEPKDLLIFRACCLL

[12] = NIH-3T3 fibroblast cytotoxicity, dose response, cytotoxicity control, cell-based, fluorescence, Alamar Blue, secondary assay (AID 2327); format: functional;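 further: NIH-3T3 mouse fibroblasts cultured with fluconazole at 8 µg/mL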
[13] = fluconazole-exposed Candida albicans growth modulators – fluorescence, retest, confirmation (AID 2467); format: functional, cell-based
Large T antigen = Large T antigen (Simian virus 40, UniProt P03070); format: functional, Betapolyomavirus macacae;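 further: Confirmatory-stage PubChem screen for compounds that inhibit SV40 T antigen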
[14] = target: Bifunctional protein GlmU (Mycobacterium tuberculosis, UniProt P9WMN3); experiment: Inhibitors of Mycobacterial Glucosamine-1-phosphate acetyl transferase (GlmU). Secondary screen.; design: species or system Mycobacterium tuberculosis H37Rv
Chain of Bifunctional protein GlmU (P9WMN3 whole entry): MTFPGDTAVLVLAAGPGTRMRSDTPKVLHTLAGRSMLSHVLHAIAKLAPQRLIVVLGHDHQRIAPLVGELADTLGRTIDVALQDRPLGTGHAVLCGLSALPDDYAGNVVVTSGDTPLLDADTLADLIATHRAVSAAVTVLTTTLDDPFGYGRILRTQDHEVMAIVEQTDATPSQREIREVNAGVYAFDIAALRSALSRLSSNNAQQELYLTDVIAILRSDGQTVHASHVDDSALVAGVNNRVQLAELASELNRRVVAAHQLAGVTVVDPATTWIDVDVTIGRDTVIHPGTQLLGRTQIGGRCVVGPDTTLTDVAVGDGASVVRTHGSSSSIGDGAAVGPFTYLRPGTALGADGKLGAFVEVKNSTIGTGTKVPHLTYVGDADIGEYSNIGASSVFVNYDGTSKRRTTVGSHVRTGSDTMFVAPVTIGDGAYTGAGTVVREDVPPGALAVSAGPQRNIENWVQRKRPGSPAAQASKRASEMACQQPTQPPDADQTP

Genome polyprotein = Genome polyprotein (dengue virus type 2, UniProt P29990); experiment: flavivirus cap methylation enzyme inhibition – biochemical, confirmation dose response, primary screen (AID 588689); format: functional
[15] = target: T4, Carboxy-terminal domain RNA polymerase II polypeptide A small phosphatase 1 (Homo sapiens, UniProt Q9GZU7); experiment: CTDSP1 inhibitors, concentration-response, biochemical, absorbance readout, ultra-high-throughput screen actives (AID 540297); format: functional
T4 sequence (Q9GZU7 whole entry): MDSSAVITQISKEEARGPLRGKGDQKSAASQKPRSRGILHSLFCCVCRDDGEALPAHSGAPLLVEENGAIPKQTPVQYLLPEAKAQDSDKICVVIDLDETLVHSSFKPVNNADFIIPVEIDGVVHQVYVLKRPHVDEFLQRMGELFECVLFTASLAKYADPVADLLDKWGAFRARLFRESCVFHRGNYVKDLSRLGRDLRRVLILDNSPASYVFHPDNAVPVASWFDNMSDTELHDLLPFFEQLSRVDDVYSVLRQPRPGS

[16] = target: Long-chain-fatty-acid--AMP ligase FadD28 (Mycobacterium tuberculosis, UniProt P9WQ59); experiment: Fluorescence polarization aasay to screen for inhibitors that compete for the binding of FadD28 to a bisubstrate Measured in Biochemical System Using Plate Reader - 2147-01_Inhibitor_Dose_CherryPick_Activity.; format: functional, Mycobacterium tuberculosis H37Rv
Chain of Long-chain-fatty-acid--AMP ligase FadD28 (P9WQ59 whole entry): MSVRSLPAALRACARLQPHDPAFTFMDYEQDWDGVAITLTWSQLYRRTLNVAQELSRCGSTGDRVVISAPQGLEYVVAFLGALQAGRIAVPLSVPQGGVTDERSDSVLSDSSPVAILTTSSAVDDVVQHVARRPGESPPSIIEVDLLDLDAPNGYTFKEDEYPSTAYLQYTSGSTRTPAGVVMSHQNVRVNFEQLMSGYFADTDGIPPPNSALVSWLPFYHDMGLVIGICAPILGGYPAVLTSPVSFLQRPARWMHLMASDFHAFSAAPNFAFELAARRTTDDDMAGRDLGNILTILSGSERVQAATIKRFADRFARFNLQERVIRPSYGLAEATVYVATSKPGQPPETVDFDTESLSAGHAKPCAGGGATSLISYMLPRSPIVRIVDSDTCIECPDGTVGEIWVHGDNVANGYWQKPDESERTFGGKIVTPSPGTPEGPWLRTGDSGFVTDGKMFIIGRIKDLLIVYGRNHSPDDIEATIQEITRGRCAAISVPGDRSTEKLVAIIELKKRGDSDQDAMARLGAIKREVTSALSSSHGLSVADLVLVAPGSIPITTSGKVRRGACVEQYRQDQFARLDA

[17] = target: T5, Histone-lysine N-methyltransferase NSD2 (Homo sapiens, UniProt O96028); format: biochemical
T5 sequence (O96028 whole entry): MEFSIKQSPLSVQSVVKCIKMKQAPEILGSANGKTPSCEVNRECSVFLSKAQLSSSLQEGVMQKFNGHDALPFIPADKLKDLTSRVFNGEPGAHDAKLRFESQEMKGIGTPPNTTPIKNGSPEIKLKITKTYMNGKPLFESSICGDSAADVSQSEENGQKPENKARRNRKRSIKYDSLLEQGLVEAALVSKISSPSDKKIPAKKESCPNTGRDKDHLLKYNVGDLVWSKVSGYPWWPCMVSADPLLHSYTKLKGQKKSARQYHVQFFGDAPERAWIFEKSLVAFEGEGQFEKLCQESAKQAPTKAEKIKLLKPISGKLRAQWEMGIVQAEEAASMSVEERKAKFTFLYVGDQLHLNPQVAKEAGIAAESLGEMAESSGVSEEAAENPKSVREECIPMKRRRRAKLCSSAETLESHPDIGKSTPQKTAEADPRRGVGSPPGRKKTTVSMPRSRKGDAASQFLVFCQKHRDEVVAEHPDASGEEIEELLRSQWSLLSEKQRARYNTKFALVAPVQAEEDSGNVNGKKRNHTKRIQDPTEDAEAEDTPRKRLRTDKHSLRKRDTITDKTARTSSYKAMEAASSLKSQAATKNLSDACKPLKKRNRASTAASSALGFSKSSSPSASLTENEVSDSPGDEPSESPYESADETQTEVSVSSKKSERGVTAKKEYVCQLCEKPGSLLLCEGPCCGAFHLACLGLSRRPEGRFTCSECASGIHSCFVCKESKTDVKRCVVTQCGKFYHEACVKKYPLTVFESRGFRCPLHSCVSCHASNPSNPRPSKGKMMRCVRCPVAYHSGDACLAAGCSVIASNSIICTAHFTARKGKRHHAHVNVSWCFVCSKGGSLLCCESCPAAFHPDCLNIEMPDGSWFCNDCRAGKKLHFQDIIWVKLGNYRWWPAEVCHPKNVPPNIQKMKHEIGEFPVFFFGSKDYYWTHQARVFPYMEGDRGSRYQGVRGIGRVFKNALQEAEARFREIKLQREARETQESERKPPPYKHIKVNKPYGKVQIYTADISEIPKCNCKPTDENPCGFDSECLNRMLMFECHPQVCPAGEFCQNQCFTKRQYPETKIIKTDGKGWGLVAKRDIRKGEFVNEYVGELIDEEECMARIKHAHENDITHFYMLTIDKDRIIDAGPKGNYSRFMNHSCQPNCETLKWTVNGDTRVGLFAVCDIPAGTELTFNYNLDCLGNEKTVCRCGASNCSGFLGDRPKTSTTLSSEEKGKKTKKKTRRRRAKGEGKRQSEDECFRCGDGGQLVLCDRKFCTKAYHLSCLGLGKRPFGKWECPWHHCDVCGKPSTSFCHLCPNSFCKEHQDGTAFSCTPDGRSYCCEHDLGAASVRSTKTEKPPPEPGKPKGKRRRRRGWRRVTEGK

[18] = CCR5-tropic HIV-1 fusion blockers – cell-based, CCR5-tropic Env, dose response (AID 2279); format: functional
[19] = Luminescence Cell-Based Dose Retest to Confirm Inhibitors of Cancer Stem Cells. [Related pubchem assays (depositor defined):AID2717, AID2721]; format: functional; settings: Homo sapiens

Chain of Mitogen-activated protein kinase 10 (P53779 whole entry): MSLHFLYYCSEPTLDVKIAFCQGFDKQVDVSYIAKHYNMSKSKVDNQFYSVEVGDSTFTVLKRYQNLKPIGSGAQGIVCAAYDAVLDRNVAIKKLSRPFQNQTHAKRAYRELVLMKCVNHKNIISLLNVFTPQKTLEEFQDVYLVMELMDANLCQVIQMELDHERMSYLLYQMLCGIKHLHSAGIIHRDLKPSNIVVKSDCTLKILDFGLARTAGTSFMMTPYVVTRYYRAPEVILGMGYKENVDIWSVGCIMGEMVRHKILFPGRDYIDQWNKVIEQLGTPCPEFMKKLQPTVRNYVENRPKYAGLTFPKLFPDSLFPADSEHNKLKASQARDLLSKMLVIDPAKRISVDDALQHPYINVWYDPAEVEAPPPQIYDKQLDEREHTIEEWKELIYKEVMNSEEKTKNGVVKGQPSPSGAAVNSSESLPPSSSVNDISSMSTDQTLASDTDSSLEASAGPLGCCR
Chain of Glyceraldehyde-3-phosphate dehydrogenase (P04406 whole entry): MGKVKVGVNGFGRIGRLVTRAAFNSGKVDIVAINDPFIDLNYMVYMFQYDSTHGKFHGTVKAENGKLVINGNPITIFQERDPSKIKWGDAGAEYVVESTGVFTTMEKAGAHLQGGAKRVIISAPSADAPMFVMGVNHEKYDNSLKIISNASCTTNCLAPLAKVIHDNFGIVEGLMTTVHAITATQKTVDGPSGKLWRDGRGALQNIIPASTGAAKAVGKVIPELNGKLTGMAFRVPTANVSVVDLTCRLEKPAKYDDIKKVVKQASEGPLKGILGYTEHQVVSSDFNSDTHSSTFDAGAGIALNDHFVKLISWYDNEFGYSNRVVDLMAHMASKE

For `c1ccc(-c2[nH]nc3ccccc23)cc1`, the IC50 [1] was > 10 µM (inconclusive), the IC50 [2] was 2.34 µM (active) and the IC50 [3] was 3.53 µM (active).
In the case of `O=C(Nc1ccccc1)Nc1cccc2nsnc12`, the EC50 [4] is reported as 0.452 µM (active), the EC50 [5] is reported as 0.19 µM (active) and the EC50 [6] is reported as < 0.1 µM (inconclusive). For the same molecule, the EC50 (H4) was 1.37 µM (active), the EC50 [7] was 0.739 µM (active) and the EC50 [8] was > 12 µM (not active). The EC50 [9] was > 67.5 µM (inactive) and the EC50 (cells) was > 67.5 µM (inactive).
For `CC1CCN(C(=O)CSc2nc3ccccc3s2)CC1`, the EC50 [4] was 2.07 µM (active), the EC50 [5] was 0.185 µM (active) and the EC50 [6] was < 0.1 µM (inconclusive). The EC50 (H4) was 20.3 µM (active), the EC50 [7] was 0.482 µM (active) and the EC50 [8] was 1.69 µM (active).
In the case of `O=C1/C(=C\c2ccc(-c3ccccc3Cl)o2)SC(=S)N1CC1CCCO1` (stereo not given), the IC50 (Ephrin type-A receptor 4) is reported as 0.4 µM (active).
For `COc1ccc2sc3ccccc3c(=O)c2c1OC`, the IC50 (Ephrin type-A receptor 4) was > 100 µM (not active) and the AC50 (Cytochrome P450 2C9) was 28.2 µM (inconclusive).
With `COC(=O)NC(c1cccs1)C(C(C)=O)C(=O)OC` (stereo not given) the AC50 (Cytochrome P450 2C19) was 3.98 µM (inconclusive) and the AC50 (Cytochrome P450 3A4) was 3.98 µM (inconclusive).
In the case of `O=C(Nc1ccc(Cl)cc1)c1ccc(-n2cccn2)c([N+](=O)[O-])c1`, the EC50 [10] is reported as 8.84 µM (not active).
With `Cc1cccc(NC(=O)C2CC(=O)n3cnnc3S2)c1` (stereo not given) the IC50 [11] was > 50 µM (not active).
For `Cn1c(=O)[nH]c(=O)c2c1nc(Br)n2CCCc1ccccc1`, the EC50 [10] was 46.5 µM (not active).
With `Cc1cccc(N2NC(=O)/C(=C/c3ccc(-c4ccc(Cl)c(C(=O)O)c4)o3)C2=O)c1` the EC50 [12] was > 150 µM (inactive), the EC50 [13] was > 38 µM (not active) and the IC50 (Large T antigen) was 22.3 µM (active). For the same molecule, the IC50 [14] was 122 µM (active), the IC50 (Genome polyprotein) was 22.5 µM (active) and the IC50 [15] was 3.84 µM (active). The AC50 [16] was > 100 µM (inactive) and the AC50 [17] was > 20 µM (inactive).
In the case of `COc1ccc(C(=O)/C=C/c2ccc(OCc3ccccc3)cc2)cc1CSCC(=O)O`, the IC50 [18] is reported as 42.8 µM (active) and the AC50 [19] is reported as 5.79 µM (active).
